The values that follow come from US7214708B2, “Synthetic discodermolide analogs” (priority 2004, dated 2007).

Assay [1] relates to NCI/ADR. Nature of the assay: inhibition of proliferation of tumor cell line NCI/ADR. The note with it: NCI/ADR (NCI/ADR-Res) multi-drug resistant human breast cancer cell line; some results are the average of multiple runs. Format: cell-based. How it is done: (§1) The biological activities of compounds I were evaluated by measuring their inhibitory effect on the proliferation of various tumor cell lines. MCF-7, A549, SKOV-3, and CCRF-CEM are human breast cancer, lung cancer, ovary cancer, and leukemia cell lines, respectively. HL-60/MX2 is a leukemia cell line resistant to mitoxantrone. A549 t12 is an A549 subline resistant to paclitaxel. CCRF-CEM/PTX, CCRF-CEM/VBL, and CCRF-CEM/VP16 are CCRF-CEM sublines resistant to paclitaxel, vinblastine, and VP-16 (etoposide), respectively. NCI/ADR (also referred to as NCI/ADR-Res) is a multi-drug resistant human breast cancer cell line.
(§2) The biological activity of compound II-A was evaluated by measuring its inhibitory effect on the proliferation of various tumor cell lines. (The characteristics of the various cell lines employed was previously described hereinabove.)
(§3) The biological activity of compounds III was evaluated by measuring their inhibitory effect on the proliferation of various tumor cell lines. The characteristics of the cells lines used has been described hereinabove.
(§4) The biological activity of compounds IV was evaluated by measuring their inhibitory effect on the proliferation of various tumor cell lines. The characteristics of the cell lines used has been discussed hereinabove.

Assay [2] concerns SKOV-3. Nature of the assay: inhibition of proliferation of tumor cell line SKOV-3. It counts as cell-based. To be noted: SKOV-3 human ovary cancer cell line, some results are the average of multiple runs. On the procedure:
as §1, §2, §3

Assay [3] concerns MCF-7. Nature of the assay: inhibition of proliferation of tumor cell line MCF-7. It counts as cell-based. The note with it: MCF-7 human breast cancer cell line, some results are the average of multiple runs. On the procedure:
as §1, §2, §3, §4

Assay [4] deals with A549. Kind of assay: inhibition of proliferation of tumor cell line A549. It counts as cell-based. To be noted: A549 human lung cancer cell line; some results are the average of multiple runs. How it is done:
as §1, §2, §3, §4

Assay [5] deals with CCRF-CEM. Nature of the assay: inhibition of proliferation of tumor cell line CCRF-CEM. It counts as cell-based. The note with it: CCRF-CEM human leukemia cell line; some results are the average of multiple runs. How it is done:
as §1, §2, §4

For assay [6], the system named is CCFR-CEM/VP16. Nature of the assay: inhibition of proliferation of tumor cell line CCRF-CEM/VP16. The note with it: CCRF-CEM subline resistant to VP-16 (etoposide), some results are the average of multiple runs. Format: cell-based, human. How it is done:
as §1, §2, §4

The test system of assay [7] is HL-60/MX2. Kind of assay: inhibition of proliferation of tumor cell line HL-60/MX2. Format: cell-based. To be noted: HL-60/MX2 leukemia cell line resistant to mitoxantrone, some results are the average of multiple runs. On the procedure: as §1, §2, §4
Assay [8] deals with CCRF-CEM/VBL. Nature of the assay: inhibition of proliferation of tumor cell line CCRF-CEM/VBL. Format: cell-based, human. To be noted: CCRF-CEM subline resistant to vinblastine, some results are the average of multiple runs. How it is done: as §1, §2, §4
For assay [9], the system named is CCRF-CEM/PTX. Nature of the assay: inhibition of proliferation of tumor cell line CCRF-CEM/PTX. It counts as cell-based, human. To be noted: CCRF-CEM subline resistant to paclitaxel, some results are the average of multiple runs. How it is done: as §1, §2, §4
Assay [10] relates to A549 t12. Kind of assay: inhibition of proliferation of tumor cell line A549 t12. Format: cell-based, human. The note with it: A549 t12, A549 subline resistant to paclitaxel, some results are the average of multiple runs. On the procedure:
as §1, §2, §4

In the case of `C=C/C=C\[C@H](C)[C@H](OC(N)=O)[C@@H](C)[C@H](O)[C@@H](C)C/C(C)=C\[C@H](C)[C@@H](O)[C@@H](C)/C=C\[C@@H](O)C[C@H]1CCC(=O)O1` [III-A], the IC50 is 350 nM in assay [1], 14 nM in assay [2] (SK-OV-3), 2.9 nM in assay [3] (MCF7) and 4.9 nM in assay [4].

`CC/C=C\[C@H](C)[C@H](OC(N)=O)[C@@H](C)[C@H](O)[C@@H](C)C/C(C)=C\[C@H](C)[C@@H](O)[C@@H](C)/C=C\[C@@H](O)C[C@H]1CCC(=O)O1` [III-B]: the IC50 amounted to 730 nM in assay [1], 15 nM in assay [2] (SK-OV-3), 6.4 nM in [3] (MCF7) and 46 nM in [4].

With `CC/C=C\[C@H](C)[C@H](OC(N)=O)[C@@H](C)[C@H](O)[C@@H](C)C/C(C)=C\[C@H](C)[C@@H](O)[C@@H](C)/C=C\[C@@H](O)C[C@@H]1OC(=O)[C@H](C)[C@@H](OC)[C@H]1C` [IV-A], the IC50 was found to be 8.6 nM in [5]; 140 nM in assay [1]; 12 nM in [6] (Homo sapiens); 5.8 nM in assay [3] (MCF7); 12 nM in assay [7] (Homo sapiens, HL60/MX2); 209 nM in assay [8] (Homo sapiens). Further, the results for the IC50 in [4], in assay [9] (Homo sapiens) and in assay [10] (Homo sapiens) were 11 nM, 65 nM and 50 nM, respectively.

For `C=C/C=C\[C@H](C)[C@H](OC(N)=O)[C@@H](C)[C@H](O)[C@@H](C)C/C(C)=C\[C@H](C)[C@@H](O)[C@@H](C)/C=C(/C)[C@@H](O)C[C@@H]1OC(=O)[C@H](C)[C@@H](O)[C@H]1C` [II-A, 8-methyldiscodermolide], the IC50 came out at 5.6 nM in assay [5]; 610 nM in assay [1]; 9 nM in assay [6] (Homo sapiens); 29 nM in assay [2] (SK-OV-3); 7.7 nM in [3] (MCF7); 11 nM in [7] (Homo sapiens, HL60/MX2). Also, the IC50 was 152 nM in [8] (Homo sapiens), 12 nM in [4], 42.3 nM in assay [9] (Homo sapiens) and 31 nM in assay [10] (Homo sapiens).

As to `C=C/C=C\[C@H](C)[C@H](OC(N)=O)[C@@H](C)[C@H](O)[C@@H](C)C/C(C)=C\[C@H](C)[C@@H](O)[C@@H](C)/C=C\[C@H](C[C@@H]1OC(=O)[C@H](C)[C@@H](O)[C@H]1C)OCOCCOC` [I-B], the IC50 came out at 140 nM in assay [1], 5.5 nM in assay [3] (MCF7), 6.7 nM in assay [4] and 5.8 nM in assay [10] (Homo sapiens).

Take `CC/C=C\[C@H](C)[C@H](OC(N)=O)[C@@H](C)[C@H](O)[C@@H](C)C/C(C)=C\[C@H](C)[C@@H](O)[C@@H](C)/C=C\[C@@H](O)C[C@@H]1OC(=O)[C@H](C)C[C@H]1C` [IV-B]: the IC50 in assay [5] stood at 4.4 nM; in assay [1] it was 250 nM; in assay [6] (Homo sapiens) it was 8.4 nM; in assay [3] (MCF7), 3.8 nM; in assay [7] (Homo sapiens, HL60/MX2), 4.1 nM; in [8] (Homo sapiens), 416 nM. In addition, the values for the IC50 in assay [4], in assay [9] (Homo sapiens) and in [10] (Homo sapiens) were 6.5 nM, 79 nM and 12 nM, respectively.

Consider (+)-Discodermolide [reference compound], for which the IC50 was determined as 14.8 nM in assay [5]; 247 nM in assay [1]; 53 nM in assay [6]; 31.7 nM in assay [2]; 14.1 nM in assay [3]; 150 nM in assay [7]. Further, the IC50 in assay [8] stood at 158 nM; in assay [4] it was 24.4 nM; in assay [9], 92.8 nM; in [10], 26.7 nM.

Usually IC50 stands for the concentration that inhibits the measured activity by half. A higher IC50 goes with lower potency.
